Experimental data: patent publication US8497075B2, “Methods of identifying a modulator that inhibits the binding between Epstein-Barr virus induced receptor 2 and cholesterol derived ligands” (Novartis AG, priority 2008, dated 2013)
Blank lines part the entries; values can stand above or below the compound they belong to.

How the values were obtained:
[1] = target: T1, hEBI2 (Homo sapiens, UniProt P32249); test: GTPγS assay on EBI2 membranes; type: biochemical; set-up: expressed in transfected cells; host or cells: CHO-K1 expressing apoaequorin (CHO-Aeq) with Gqi5; line E2
T1 sequence (P32249 whole entry): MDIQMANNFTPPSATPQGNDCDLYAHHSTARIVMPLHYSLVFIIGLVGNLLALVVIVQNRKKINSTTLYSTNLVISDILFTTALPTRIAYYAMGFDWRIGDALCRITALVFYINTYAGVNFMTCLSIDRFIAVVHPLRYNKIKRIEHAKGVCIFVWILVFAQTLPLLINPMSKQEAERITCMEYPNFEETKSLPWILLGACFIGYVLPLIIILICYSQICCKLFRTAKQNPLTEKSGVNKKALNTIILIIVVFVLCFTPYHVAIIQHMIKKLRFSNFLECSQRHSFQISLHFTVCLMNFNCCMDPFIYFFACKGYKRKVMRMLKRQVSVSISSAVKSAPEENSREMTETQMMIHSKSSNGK
Experimental: (§1) The cell suspension was then homogenized using a Dounce homogenizer (10 strokes) with a driller. After centrifugation at 110000×g for 45 minutes and removal of the supernatant, pellets were resuspended in sucrose buffer (50 mM Tris pH7.2, 250 mM sucrose, 10% glycerol) by vortexing. The suspension was again homogenize using a Dounce homogenizer (10 strokes) and spun at 100000×g for 45 minutes. The supernatant was discarded, the pellet resuspended in sucrose buffer, protein concentration determined, aliquoted and frozen at −80° C. These membrane preparations were used in binding as well as GTPgS assays.
Ten micrograms of EBI2 membranes are dissolved in 40 μl of buffer A (20 mM Hepes pH 7.4, 100 mM NaCl, 1.5 mM MgCl2, Saponin 10 μg/ml) supplemented with 10 μM GDP. After addition of […] scintilation proximity assay (SPA) beads (100 μg/well, Amersham, RPNQ0001) components are gently mixed and incubated at RT for 15 minutes. Twenty microliters of compound diluted in buffer A and 20 μl of GTPγ^35S (Perkin Elmer NEG030X) is added before incubation for one hour at RT. Plates are transferred and counted in a TopCount (Perkin Elmer NXT HTS™) and counts are analysed plotted and to determine half maximal concentrations of activation using standard software (Prism™, GraphPad Software Inc.).

[2] = target: T1, hEBI2; test: calcium fluorescence (FLIPR); type: cell-based; set-up: expressed in transfected cells; host or cells: CHO-K1 expressing apoaequorin (CHO-Aeq) with Gqi5; line E2
Experimental: If not stated otherwise compounds were dissolved at 10 mM in DMSO or ethanol (cholesterol, 25MDC). Serial dilutions were carried out in 90% DMSO (FLIPR, GTPgS) or assay buffer (binding assay). For cell based assays final DMSO concentrations is kept below 1%.
If not stated otherwise, the same Chinese hamster ovary (CHO) cell line called E2 which was used for the ligand identification was used in these experiments. This cell line is expressing (1) the recombinant human EBI2 receptor, (2) the promiscuous Gqi5 protein as well as (3) apo-aequorin.
Cells were seeded in black/clear bottom, poly-D-Lysine coated 384-well plates at a cell density of 10,000 cells/25 μL/well, using culture medium. Cells were cultured for 24 hours at 37° C./5% CO2. Culture medium was removed and for cell loading, 20 μl per well of loading buffer (Calcium-4 no wash dye) were distributed into the wells and the plates were incubated for 60 min at 37° C. in 5% CO2. With the FLIPR pipettor, 10 μl of the different compounds were added to the cells and the subsequent fluorescent changes monitored for 3 minutes. Using the FLIPR software tool, 2 values of fluorescence calcium responses were exported: Fmax, the fluorescence at the peak and Fbasal corresponding to the value prior to compound injection. From these two values, the calcium response is normalized with respect to the calcium baseline values using dF/F=(Fmax−Fbasal)/Fbasal. The maximum dF/F is called Emax.

[3] = target: T1, hEBI2; test: [3H] 7a,25DHC radio-ligand binding assay (SPA), IC50 determination; set-up: expressed in transfected cells; host or cells: CHO-K1 expressing apoaequorin (CHO-Aeq) with Gqi5; line E2
Experimental: as §1
Lyophilized wheat germ agglutinin scintilation proximity assay (SPA) beads (RPNQ0001) were purchased from GE Healthcare (Buckinghamshire, UK). One vial (500 mg) is reconstituted by adding 5 mL of distilled water to give a final concentration of 100 mg/mL. Reconstituted SPA beads must be stored at 4° C., but must not be frozen. [3H]-7a,25-OHC, was synthesized by reduction of the 7-keto, 25DHC in the presence of 3H-L-selectride.
The SPA assay was performed in a final volume of 50 μl per well in a 384-well polystyrene Opti plate. The components were added into the wells as follows: • 10 μl tested compounds in 50 mM Tris; 100 mM NaCl; 5 mM MgCl2 and 0.1% Cyclodextrine.
Total binding was determined by the addition of 10 μl of 50 mM Tris; 100 mM NaCl; 5 mM MgCl2 and 0.1% Cyclodextrine and non-specific binding was determined by the addition of 10 μl NVP-BYX998-NX-4 (final concentration of 10 μM). • 20 μL of 10 nM final [3H]-BYX998 in assay buffer (50 mM Tris-HCl, 100 mM NaCl, 5 mM MgCl2 and 0.1% Cyclodextrine). • 20 μL of a mixed bead and membrane suspension in assay buffer, in order to get a final concentration of 20 μg membranes/well and 200 μg beads/well.
The plates were sealed and shaken at room temperature for 10 minutes then allowed to stand at room temperature for at least 12 hours. The plates were counted using a Perkin Elmer TopCount reader, each well being counted for 1 minute.
Each IC50 determination was performed with 11 concentrations.
A standard data reduction algorithm was used to calculate the percentage of specific binding in the presence of test compound as follows: ((B−NSB)/(Total−NSB))·100, where B=Binding in the presence of test compound (in cpm) NSB=Non-specific binding in the presence of excess inhibitor (in cpm) Total=Binding in the absence of test compound (in cpm) Curve fitting of the normalized concentration response curves using a four parameter logistic fit is then performed using XLfit (v.2 or v.4, IDBS, Guildford, UK). The equation used is XLfit equation no. […] By default, min is fixed at 0, whereas max is not fixed.

[4] = target: T1, hEBI2; test: saturation binding, KD determination; set-up: expressed in transfected cells; host or cells: CHO-K1 expressing apoaequorin (CHO-Aeq) with Gqi5; line E2
Experimental: as §1, with “CHO cells stably expressing human EBI2 (E2) were grown in roller bottles (Corning #431191) to confluency, washed with phosphate buffered saline (PBS) once and frozen at −80° C. The frozen cell pellets were resuspended in ice-cold homogenization buffer (10 ml/gram, 20 mM Tris pH7.2) supplemented with a protease inhibitor cocktail (Complete™, Roche, #05 056 489 001-14302200). The cell” for “The cell”
These solutions were made in buffer containing 50 mM Tris; 100 mM NaCl; 5 mM MgCl2 and 0.1% Cyclodextrine.
[…] was measured in presence of a constant 7a,25DHC (NVP-BYX998-NX-4) concentration of 10 uM final and the corresponding total binding was measured with buffer instead of NVP-BYX998-NX-4. […]

[5] = test system: RS11846 cells; test: chemotaxis 96 transwell assay; type: cell-based
Experimental: B cells (RS11846 or EBV-infected human B-cells) or murine bone marrow-derived dendritic cells were washed once with medium and resuspended at 1×10^6/ml. 100 μl of this suspension was added into the wells of the filter plate and gently placed into the receiver plate containing 150 μl of a given compound dilution. The final DMSO concentration was less then 0.1%. After migration for 3 hr at 37° C. in an incubator, the filter plate was carefully removed from the receiver plate and discarded. The migrated cells in the receiver plate were resuspended and transferred into round-bottom 96-well plate, centrifuged and resuspended in 100 μl PBS containing 2% FCS and 0.1% NaN3 (FACS buffer). The input cells (100 μl) were similarly processed. For the calculation of the specific migration, a fixed number of beads (10000; Invitrogen #PCB100)) in 20 μl FACS buffer was added and the suspension was analyzed by flow cytometry using a FACS instrument PAS™ (Partec). Cells were identified based on their forward scatter (FSC) and side scatter (SSC) pattern. Chemotaxis is expressed either as total cell number or as percent of input cells.

EC50 ([1]; n = 3-4, read-out: GTPgS EC50): 125 nM | EC50 ([2]; n = 3-4, read-out: FLIPR EC50): 310 nM | IC50 [3]: > 10000 nM
Compound: CC(CO)CCC[C@@H](C)[C@H]1CC[C@H]2[C@@H]3[C@@H](O)C=C4C[C@@H](O)CC[C@]4(C)[C@H]3CC[C@]12C (stereo partly drawn) [7b,27DHC, cholest-5-ene-3b,7b,27-triol]

EC50 [1]: 727 nM | EC50 [2]: 3030 nM | IC50 [3]: > 10000 nM
Compound: C[C@H](CCCC(C)(C)O)[C@H]1CC[C@H]2[C@@H]3CC=C4C[C@@H](O)CC[C@]4(C)[C@H]3CC[C@]12C [25DHC, 25-hydroxycholesterol]

Compound: C[C@H](CCCC(C)(C)O)[C@H]1CC[C@H]2[C@@H]3[C@H](O)C=C4C[C@@H](O)CC[C@]4(C)[C@H]3CC[C@]12C [[^3H]-7a,25DHC]
Kd [4]: 25 nM

Compound: C[C@H](CCCC(C)(C)O)[C@H]1CC[C@H]2[C@@H]3[C@@H](O)C=C4C[C@@H](O)CC[C@]4(C)[C@H]3CC[C@]12C [[^3H]-7b,25DHC]
specific binding to EBI2 membranes ([4]; data not shown): not able to detect specific binding

Compound: pertussis toxin [reference compound]
inhibition of 7a,25DHC-mediated chemotaxis of RS11846 cells [5]: blocked
